The source of these data is patent US9249087B2, “HDAC inhibitors and therapeutic methods using the same” (THE BOARD OF TRUSTEES OF THE UNIVERSITY OF ILLINOIS, priority 2011, dated 2016).

Molecules are shown by their SMILES. Structures can show the parent of a compound that is named as a salt. Where two headings read alike, the source gives them in different places.

Format in all cases: biochemical
For one experiment, the target named is Human HDAC1 (Homo sapiens (Human), UniProt Q13547). Kind of experiment: HDAC1 fluorogenic peptide deacetylation inhibition assay.
Chain of Human HDAC1 (Q13547 whole entry): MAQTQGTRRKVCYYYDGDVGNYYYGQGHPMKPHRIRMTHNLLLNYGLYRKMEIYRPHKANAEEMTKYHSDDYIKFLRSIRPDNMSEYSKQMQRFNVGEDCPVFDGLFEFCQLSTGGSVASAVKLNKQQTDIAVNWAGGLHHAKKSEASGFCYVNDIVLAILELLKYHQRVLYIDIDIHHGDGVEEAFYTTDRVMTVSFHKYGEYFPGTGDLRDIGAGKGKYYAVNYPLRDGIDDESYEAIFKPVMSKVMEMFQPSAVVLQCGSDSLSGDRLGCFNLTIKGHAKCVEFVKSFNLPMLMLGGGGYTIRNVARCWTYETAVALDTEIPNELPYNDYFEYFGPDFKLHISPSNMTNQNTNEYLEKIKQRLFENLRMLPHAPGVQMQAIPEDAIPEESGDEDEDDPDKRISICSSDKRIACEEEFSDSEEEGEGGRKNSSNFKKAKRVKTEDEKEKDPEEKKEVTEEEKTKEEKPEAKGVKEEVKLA
The target in the next experiment is Human HDAC6 (Homo sapiens (Human), UniProt Q9UBN7). Kind of experiment: HDAC6 fluorogenic peptide deacetylation inhibition assay. The conditions noted are these: for HDAC6 Selectivity (HDAC1/HDAC6): ratio HDAC1 IC50/HDAC6 IC50; for BEI: binding efficiency index, BEI=pIC50/MW, MW in kDa.
Chain of Human HDAC6 (Q9UBN7 whole entry, canonical isoform): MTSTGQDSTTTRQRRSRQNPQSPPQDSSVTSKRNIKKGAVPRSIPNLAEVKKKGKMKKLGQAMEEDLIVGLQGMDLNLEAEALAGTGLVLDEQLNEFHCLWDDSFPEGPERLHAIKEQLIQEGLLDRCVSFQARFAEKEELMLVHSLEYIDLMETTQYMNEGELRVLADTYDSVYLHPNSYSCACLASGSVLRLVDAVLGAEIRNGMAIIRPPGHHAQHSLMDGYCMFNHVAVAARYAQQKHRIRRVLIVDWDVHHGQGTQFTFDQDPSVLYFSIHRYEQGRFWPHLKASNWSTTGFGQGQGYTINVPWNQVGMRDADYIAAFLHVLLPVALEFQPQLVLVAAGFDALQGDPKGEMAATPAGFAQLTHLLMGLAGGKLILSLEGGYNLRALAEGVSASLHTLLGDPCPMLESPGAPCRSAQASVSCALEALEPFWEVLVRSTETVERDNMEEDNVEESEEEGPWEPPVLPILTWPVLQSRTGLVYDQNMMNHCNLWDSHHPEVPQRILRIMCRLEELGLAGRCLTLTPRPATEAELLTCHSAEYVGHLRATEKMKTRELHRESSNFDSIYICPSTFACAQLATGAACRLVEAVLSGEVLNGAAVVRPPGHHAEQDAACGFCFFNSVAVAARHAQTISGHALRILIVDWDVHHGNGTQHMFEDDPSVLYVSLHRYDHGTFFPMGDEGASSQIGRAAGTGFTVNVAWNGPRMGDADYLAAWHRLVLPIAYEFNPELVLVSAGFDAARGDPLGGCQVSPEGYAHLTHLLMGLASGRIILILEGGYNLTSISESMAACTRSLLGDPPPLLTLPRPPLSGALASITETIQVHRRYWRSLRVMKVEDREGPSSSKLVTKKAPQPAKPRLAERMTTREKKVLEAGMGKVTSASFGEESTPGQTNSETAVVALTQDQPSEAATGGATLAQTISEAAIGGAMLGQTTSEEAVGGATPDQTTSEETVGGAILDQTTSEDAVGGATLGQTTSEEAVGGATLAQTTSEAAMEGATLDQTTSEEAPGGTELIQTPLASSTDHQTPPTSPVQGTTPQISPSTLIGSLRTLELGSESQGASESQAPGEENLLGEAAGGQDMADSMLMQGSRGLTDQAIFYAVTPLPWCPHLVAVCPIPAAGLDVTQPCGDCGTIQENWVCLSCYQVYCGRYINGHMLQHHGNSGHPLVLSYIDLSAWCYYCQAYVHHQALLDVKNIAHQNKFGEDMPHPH
For a further experiment, the target named is HDAC2 (Homo sapiens (Human), UniProt Q92769). Kind of experiment: HDAC2 fluorogenic peptide deacetylation inhibition assay. The settings on record: average of two experiments; read-out: HDAC Isoform IC50 (μM) 2.
Chain of HDAC2 (Q92769 whole entry, canonical isoform): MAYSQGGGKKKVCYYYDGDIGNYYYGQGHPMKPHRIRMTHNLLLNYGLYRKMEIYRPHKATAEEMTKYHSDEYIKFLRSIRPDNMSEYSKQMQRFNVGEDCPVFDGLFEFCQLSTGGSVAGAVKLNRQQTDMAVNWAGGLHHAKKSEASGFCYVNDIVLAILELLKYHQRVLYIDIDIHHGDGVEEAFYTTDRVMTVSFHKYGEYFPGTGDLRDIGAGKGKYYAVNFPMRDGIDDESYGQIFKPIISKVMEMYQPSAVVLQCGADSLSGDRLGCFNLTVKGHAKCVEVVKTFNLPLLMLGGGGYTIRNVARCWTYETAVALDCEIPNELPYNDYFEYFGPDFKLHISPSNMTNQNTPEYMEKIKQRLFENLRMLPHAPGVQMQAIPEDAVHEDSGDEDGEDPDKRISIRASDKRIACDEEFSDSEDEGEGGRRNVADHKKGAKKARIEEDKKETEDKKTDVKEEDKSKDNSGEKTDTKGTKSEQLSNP
Another experiment has as its target HDAC8 (Homo sapiens (Human), UniProt Q9BY41). Kind of experiment: HDAC8 inhibition assay (fluorogenic diacyl peptide).
Another experiment has as its target HDAC9 (Homo sapiens (Human), UniProt Q9UKV0). Kind of experiment: HDAC9 inhibition assay (Acetyl-Lys(trifluoroacetyl)-AMC substrate). The conditions noted are these: average of two experiments; read-out: HDAC Isoform IC50 (μM) 9.
The mark [1] stands for this setting: average of two experiments, read-out: HDAC Isoform IC50 (μM) 1.
Setting [2] is: average of two experiments, read-out: HDAC Isoform IC50 (μM) 6.
[3] abbreviates: average of two experiments, read-out: HDAC Isoform IC50 (μM) 8.
Where [4] appears, read: Table 3, mean of two experiments ± standard deviation, read-out: HDAC8 IC50.
Where [5] appears, read: Table 3, mean of two experiments ± standard deviation, read-out: HDAC1 IC50.
The mark [6] stands for this setting: Table 3, mean of two experiments ± standard deviation, read-out: HDAC6 IC50.

Chain of HDAC8 (Q9BY41 whole entry, canonical isoform): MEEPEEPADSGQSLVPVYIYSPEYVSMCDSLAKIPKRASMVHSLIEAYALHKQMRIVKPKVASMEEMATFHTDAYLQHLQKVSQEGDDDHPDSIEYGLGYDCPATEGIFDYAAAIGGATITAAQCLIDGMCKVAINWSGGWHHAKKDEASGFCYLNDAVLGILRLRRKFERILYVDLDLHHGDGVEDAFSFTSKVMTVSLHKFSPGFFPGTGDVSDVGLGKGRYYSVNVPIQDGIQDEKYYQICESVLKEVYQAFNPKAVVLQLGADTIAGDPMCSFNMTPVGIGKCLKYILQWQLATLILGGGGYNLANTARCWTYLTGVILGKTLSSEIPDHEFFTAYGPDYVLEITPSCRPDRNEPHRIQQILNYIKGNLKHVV
Chain of HDAC9 (Q9UKV0 whole entry, canonical isoform): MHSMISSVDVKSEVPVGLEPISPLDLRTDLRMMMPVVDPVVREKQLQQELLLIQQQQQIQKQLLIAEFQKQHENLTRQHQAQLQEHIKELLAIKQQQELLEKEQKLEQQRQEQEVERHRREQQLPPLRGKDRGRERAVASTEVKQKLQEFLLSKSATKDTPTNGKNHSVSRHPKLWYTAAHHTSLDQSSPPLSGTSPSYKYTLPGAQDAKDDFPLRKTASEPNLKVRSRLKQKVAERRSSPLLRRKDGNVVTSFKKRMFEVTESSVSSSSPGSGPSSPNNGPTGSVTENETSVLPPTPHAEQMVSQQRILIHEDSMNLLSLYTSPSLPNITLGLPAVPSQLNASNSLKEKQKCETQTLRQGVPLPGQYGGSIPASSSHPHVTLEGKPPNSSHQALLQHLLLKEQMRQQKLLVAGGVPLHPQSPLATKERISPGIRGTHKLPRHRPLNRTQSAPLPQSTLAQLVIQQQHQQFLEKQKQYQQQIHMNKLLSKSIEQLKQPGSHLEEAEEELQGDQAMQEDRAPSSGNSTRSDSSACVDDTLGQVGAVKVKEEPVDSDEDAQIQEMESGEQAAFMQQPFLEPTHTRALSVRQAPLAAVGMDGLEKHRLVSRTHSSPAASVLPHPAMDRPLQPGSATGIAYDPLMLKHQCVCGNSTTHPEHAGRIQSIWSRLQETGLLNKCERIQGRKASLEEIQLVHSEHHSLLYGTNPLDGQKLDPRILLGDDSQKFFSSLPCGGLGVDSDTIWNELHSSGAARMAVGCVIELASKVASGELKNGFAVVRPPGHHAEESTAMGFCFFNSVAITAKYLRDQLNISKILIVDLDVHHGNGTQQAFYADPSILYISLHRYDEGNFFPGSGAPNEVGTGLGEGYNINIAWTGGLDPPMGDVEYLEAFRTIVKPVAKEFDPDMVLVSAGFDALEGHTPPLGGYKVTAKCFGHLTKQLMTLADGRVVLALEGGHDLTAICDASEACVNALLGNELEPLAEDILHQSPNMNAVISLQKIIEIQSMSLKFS

As a reminder, the IC50 is the concentration at which inhibition is half-maximal. Take `Cc1c(CN)c2ccccc2n1Cc1ccc(C(=O)NO)cc1`: the IC50 on Human HDAC1 (setting [1]) was determined as 3.09 µM; on Human HDAC6 (setting [2]) it was 0.00146 µM. Further, the “HDAC6 Selectivity (HDAC1/HDAC6)” value on Human HDAC6 came to 2116.
For `O=C(NO)c1ccc(Cn2ccc3ccccc32)cc1` [Compound 2, 4-((1H-Indol-1-yl)methyl)-N-hydroxybenzamide], the IC50 at HDAC2 came out at 9.19 µM; at HDAC8 (setting [3]), 0.417 µM; on Human HDAC1 (setting [1]), 5.83 µM; at Human HDAC6 (setting [2]), 0.00975 µM; at HDAC9 it was 8.16 µM.
On to `Cc1c(C)n(Cc2ccc(C(=O)NO)cc2)c2ccccc12` [Compound 8, 4-((2,3-Dimethyl-1H-indol-1-yl)methyl)-N-hydroxybenzamide], for which the values for the half-maximal inhibitory concentration (IC50) at Human HDAC1 (setting [1]) and at Human HDAC6 (setting [2]) were 12.2 µM and 0.00408 µM, respectively.
With `O=C(NO)c1ccc(Cn2cc(Cc3ccccc3)c3ccccc32)cc1` [Compound 10, 4-((3-Benzyl-1H-indol-1-yl)methyl)-N-hydroxybenzamide], the 50% inhibitory concentration (IC50) at HDAC8 (setting [3]) was found to be 0.324 µM; on Human HDAC1 (setting [1]) it was 13.2 µM; on Human HDAC6 (setting [2]), 0.0293 µM.
`O=C(NO)c1ccc(Cn2cnc3cncnc32)cc1` [Compound 12, 4-((9H-Purin-9-yl)methyl)-N-hydroxybenzamide]: the IC50 was determined as 0.94 µM on Human HDAC1 (setting [1]) and 0.00348 µM at Human HDAC6 (setting [2]).
As for `O=C(NO)c1ccc(Cn2cnc3ncncc32)cc1` [Compound 14, 4-((7H-Purin-7-yl)methyl)-N-hydroxybenzamide], the IC50 at Human HDAC1 (setting [1]) came out at 3.56 µM; at Human HDAC6 (setting [2]), 0.0142 µM.
As to `CN1CCN(CCc2cn(Cc3ccc(C(=O)NO)cc3)c3ccccc23)CC1` [Compound 17, N-Hydroxy-4-{3-[2-(4-methyl-piperazin-1-yl)-ethyl]-indol-1-ylmethyl}-benzamide], the IC50 at HDAC8 (setting [3]) worked out at 0.174 µM; at Human HDAC1 (setting [1]) it was 1.23 µM; at Human HDAC6 (setting [2]), 0.00294 µM.
Take `Cc1c(CN(C)C)c2ccccc2n1Cc1ccc(C(=O)NO)cc1` [Compound 21, 4-((3-((Dimethylamino)methyl)-2-methyl-1H-indol-1-yl)methyl)-N-hydroxybenzamide]: the IC50 at Human HDAC1 (setting [1]) amounted to 3.09 µM; at Human HDAC6 (setting [2]), 0.00146 µM.
In the case of `NC(=O)c1ccc(Cn2ccc3ccccc32)cc1` [Compound 22, 4-((1H-Indol-1-yl)methyl)benzamide], the IC50 on Human HDAC1 (setting [1]) and at Human HDAC6 (setting [2]) was more than 30 µM in each case.
Regarding `CC(=O)c1ccc(Cn2ccc3ccccc32)cc1` [Compound 23, 1-(4-((1H-Indol-1-yl)methyl)phenyl)ethanone], the IC50 on Human HDAC1 (setting [1]) and at Human HDAC6 (setting [2]) was more than 30 µM throughout.
As for `O=C(NO)c1ccc(Cn2cnc3ccccc32)cc1` [Compound 27, 4-((1H-Benzo[d]imidazol-1-yl)methyl)-N-hydroxybenzamide.TFA], the results for the half-maximal inhibitory concentration (IC50) on Human HDAC1 (setting [1]) and on Human HDAC6 (setting [2]) were 8.54 µM and 0.0294 µM, respectively.
`CS(=O)(=O)NCCc1cn(Cc2ccc(C(=O)NO)cc2)c2ccccc12` [Compound 30, N-Hydroxy-4-((3-(2-(methylsulfonamido)ethyl)-1H-indol-1-yl)methyl)benzamide]: the results for the IC50 on Human HDAC1 (setting [1]) and at Human HDAC6 (setting [2]) were 0.623 µM and 0.00017 µM, respectively.
As to `Cc1nc2ccccc2n1Cc1ccc(C(=O)NO)cc1` [Compound 32, N-hydroxy-4-((2-methyl-1H-benzo[d]imidazol-1-yl)methyl)benzamide], the results for the IC50 on Human HDAC1 (setting [1]) and on Human HDAC6 (setting [2]) were 8.79 µM and 0.0092 µM, respectively.
As to `CC(=O)NCCCc1nc2ccccc2n1Cc1ccc(C(=O)NO)cc1` [Compound 36, 4-((2-(3-Acetamidopropyl)-1H-benzo[d]imidazol-1-yl)methyl)-N-hydroxybenzamide.TFA], the IC50 on Human HDAC1 (setting [1]) came to 14.7 µM; on Human HDAC6 (setting [2]), 0.047 µM.
`CN(C)CCc1nc2ccccc2n1Cc1ccc(C(=O)NO)cc1` [Compound 38, 4-((2-(2-(Dimethylamino)ethyl)-1H-benzo[d]imidazol-1-yl)methyl)-N-hydroxybenzamide]: the values for the IC50 at Human HDAC1 (setting [1]) and on Human HDAC6 (setting [2]) were 52.4 µM and 0.126 µM, respectively.
Taken in the same sequence, the figures for `CC(C)c1nc2ccccc2n1Cc1ccc(C(=O)NO)cc1` [Compound 39, N-Hydroxy-4-((2-isopropyl-1H-benzo[d]imidazol-1-yl)methyl)benzamide] were 27.7 µM and 0.047 µM.
`O=C(NO)c1ccc(Cn2cccc2)cc1` [Compound 41, 4-((1H-Pyrrol-1-yl)methyl)-N-hydroxybenzamide]: the IC50 came out at 5.73 µM on Human HDAC1 (setting [1]) and 0.0313 µM on Human HDAC6 (setting [2]).
In the case of `O=C(NO)c1ccc(Cn2cccn2)cc1` [Compound 43, 4-((1H-Pyrazol-1-yl)methyl)-N-hydroxybenzamide], the IC50 on Human HDAC1 (setting [1]) was found to be 1.47 µM; at Human HDAC6 (setting [2]) it was 0.0109 µM.
`O=C(NO)c1ccc(Cc2ccncc2)cc1` [Compound 45, N-Hydroxy-4-(pyridin-4-ylmethyl)benzamide]: the IC50 worked out at 6.47 µM at Human HDAC1 (setting [1]) and 0.0358 µM on Human HDAC6 (setting [2]).
Taken in the same sequence, the figures for `CN(C)c1ccc(Cc2ccc(C(=O)NO)cc2)cc1` [Compound 47, 4-(4-(Dimethylamino)benzyl)-N-hydroxybenzamide] were 6.87 µM and 0.0119 µM.
As for `CN(C)c1cccc(Cc2ccc(C(=O)NO)cc2)c1` [Compound 49, 4-(3-(Dimethylamino)benzyl)-N-hydroxybenzamide], the values for the IC50 on Human HDAC1 (setting [1]) and on Human HDAC6 (setting [2]) were 12.2 µM and 0.0701 µM, respectively.
Turning to `CCN(CC)Cc1ccc(C(=O)NO)cc1` [Compound 51, 4-((Diethylamino)methyl)-N-hydroxybenzamide], the values for the IC50 at HDAC8 (setting [3]), at Human HDAC1 (setting [1]) and on Human HDAC6 (setting [2]) were 9.43 µM, more than 30 µM and 6.28 µM, respectively.
Taken in the same sequence, the figures for `CC(C)N(Cc1ccc(C(=O)NO)cc1)C(C)C` [Compound 53, 4-((Diisopropylamino)methyl)-N-hydroxybenzamide] were 1.92 µM, 23.8 µM and 0.124 µM.
For `O=C(NO)c1ccc(CN(c2ccccc2)c2ccccc2)cc1` [Compound 55, 4-((Diphenylamino)methyl)-N-hydroxybenzamide], the IC50 on HDAC8 (setting [3]) is 2.38 µM; at Human HDAC1 (setting [1]), 6.66 µM; on Human HDAC6 (setting [2]) it was 4.5 µM. At Human HDAC6, the “selectivity for HDAC6 vs HDAC8” value is given as “over 500 fold”.
Consider `O=C(NO)c1ccc(CN2CCCC2)cc1` [Compound 57, N-Hydroxy-4-(pyrrolidin-1-ylmethyl)benzamide.TFA], for which the IC50 came out at 1.2 µM at HDAC8 (setting [3]), 29 µM on Human HDAC1 (setting [1]) and 0.54 µM on Human HDAC6 (setting [2]).
Regarding `COC[C@@H]1CCCN1Cc1ccc(C(=O)NO)cc1` [Compound 59, (S)-N-Hydroxy-4-((2-(methoxymethyl)pyrrolidin-1-yl)methyl)benzamide.TFA], the IC50 at HDAC8 (setting [3]) is 1.82 µM; at Human HDAC1 (setting [1]) it was 27.9 µM; on Human HDAC6 (setting [2]) it was 0.15 µM.
For the compound `COC[C@H]1CCCN1Cc1ccc(C(=O)NO)cc1` [Compound 61], the IC50 on HDAC8 (setting [3]) is 5.59 µM; on Human HDAC1 (setting [1]) it was more than 30 µM; on Human HDAC6 (setting [2]) it was 1.25 µM.
In the case of `O=C(NO)c1ccc(Cn2ccc3ccccc32)cc1` [drawing 136], the figures for the half-inhibitory concentration (IC50) on HDAC2 and on HDAC9 were 9.19 µM and 8.16 µM, respectively. For the same compound, the “HDAC6 Selectivity (HDAC1/HDAC6)” value at Human HDAC6 was found to be 598.
For `Cc1cc2ccccc2n1Cc1ccc(C(=O)NO)cc1` [drawing 137], the IC50 on HDAC2 was determined as 8.14 µM; at HDAC9, 18.3 µM. Also, the “HDAC6 Selectivity (HDAC1/HDAC6)” value on Human HDAC6 is reported as 2127.
For `Cc1cn(Cc2ccc(C(=O)NO)cc2)c2ccccc12` [drawing 138], the results for the IC50 at HDAC2 and on HDAC9 were 11.9 µM and 14.5 µM, respectively. Also, the “HDAC6 Selectivity (HDAC1/HDAC6)” value at Human HDAC6 was found to be 1329.
Take `O=C(NO)c1ccc(Cn2cc(Cc3ccccc3)c3ccccc32)cc1` [drawing 140]: the “HDAC6 Selectivity (HDAC1/HDAC6)” value at Human HDAC6 is reported as 451.
Consider `CN1CCN(CCc2cn(Cc3ccc(C(=O)NO)cc3)c3ccccc23)CC1` [drawing 142], for which the IC50 on HDAC8 (setting [3]) came to 0.174 µM; on Human HDAC1 (setting [1]), 1.23 µM; on Human HDAC6 (setting [2]), 0.00294 µM. For the same compound, the “HDAC6 Selectivity (HDAC1/HDAC6)” value on Human HDAC6 is 418.
Take `O=C(NO)c1ccc(Cn2cnc3cncnc32)cc1` [drawing 143]: the “HDAC6 Selectivity (HDAC1/HDAC6)” value at Human HDAC6 was determined as 270.
Consider `O=C(NO)c1ccc(Cn2cnc3ncncc32)cc1` [drawing 144], for which the “HDAC6 Selectivity (HDAC1/HDAC6)” value on Human HDAC6 turned out to be 251.
In the case of `O=C(NO)c1ccc(Cc2ccncc2)cc1` [drawing 145], the “HDAC6 Selectivity (HDAC1/HDAC6)” value at Human HDAC6 is recorded as 181.
Regarding `CN(C)c1ccc(Cc2ccc(C(=O)NO)cc2)cc1` [drawing 146], the “HDAC6 Selectivity (HDAC1/HDAC6)” value at Human HDAC6 is given as 577.
As to `O=C(NO)c1ccc(Cn2cccc2)cc1` [drawing 147], the “HDAC6 Selectivity (HDAC1/HDAC6)” value at Human HDAC6 came to 183.
Same read-out and setting: to `O=C(NO)c1ccc(Cn2cccn2)cc1` [drawing 148] belongs 135; to `O=C(NO)c1ccc(CN2CCCC2)cc1` [drawing 150], 54.
As to `CCN(CC)Cc1ccc(C(=O)NO)cc1` [drawing 153], the “HDAC6 Selectivity (HDAC1/HDAC6)” value on Human HDAC6 is on record as more than 5.
With `O=C(NO)c1ccc(Cn2ccc3ccccc32)cc1` [drawing 157], the 50% inhibitory concentration (IC50) at HDAC8 (setting [4]) stood at 0.417 ± 0.04 µM; at Human HDAC1 (setting [5]), 5.83 ± 0.7 µM; at Human HDAC6 (setting [6]), 0.0097 ± 0.0003 µM. At Human HDAC6, this compound came in with a BEI of 30.1.
The corresponding values for `Cc1cc2ccccc2n1Cc1ccc(C(=O)NO)cc1` [drawing 158] are 0.397 ± 0.099 µM, 5.34 ± 0.16 µM, 0.0025 ± 0.0004 µM and 30.7.
Turning to `Cc1cn(Cc2ccc(C(=O)NO)cc2)c2ccccc12` [drawing 159], the figures for the IC50 at HDAC8 (setting [4]), at Human HDAC1 (setting [5]) and on Human HDAC6 (setting [6]) were 0.911 ± 0.042 µM, 6.79 ± 0.29 µM and 0.0051 ± 0.0008 µM, respectively. On Human HDAC6, the BEI is reported as 29.6.
As to `O=C(NO)c1ccc(CN(c2ccccc2)c2ccccc2)cc1` [drawing 162], the IC50 on HDAC8 (setting [4]) is 2.38 ± 0.25 µM; at Human HDAC1 (setting [5]), 6.66 ± 0.51 µM. Besides, the BEI on Human HDAC6 came out at 26.3.
